Reference: patent EP4663632A1, “COMPOUNDS USEFUL FOR THE MODULATION OF THE ACTIVITY OF STING” (Sulis Therapeutics ApS, priority 2024, dated 2025)
“Also recorded” adds a separate entry of the source.

Experiments:
Type in all cases: cell-based
STING [1] = molecular target: T1, STING (Homo sapiens, UniProt Q86WV6); experiment: Western Blot analysis for STING degradation in H1650 cells; settings: 0.22 µM, 0.67 µM, 2 µM and 6 µM
Method: (§1) To assess STING degradation in H596 cells (ATCC, HTB-178) cells were seeded at a density of 100.000 cells/well in 24-well Nunclon Delta surface treated culture plate in RPMI-1640 growth medium (supplemented with 10% FBS, 1% Pen-strep). Cells were incubated over-night at 37°C 5% CO2 to allow adhesion. Next day growth medium was renewed and a 5x concentration of test compounds (2.5% DMSO) diluted in growth medium were added to the appropriate well. Final DMSO concentration was 0.5%. Cell culture plates were returned to the incubator for additional 24h. Final test compound concentrations were 0.22 µM, 0.67 µM, 2 µM and 6 µM.
(§2) For cell lysis, western blotting and data analysis, the methods described above for HFF-1 cells were applied.
Similar protocols were carried out to assess STING degradation in H1650 cells (Figure 1, top panel) and HaCat cells (Figure 1, bottom panel) using Example compounds 14, 16 and 24, except that the seeding density was 150,000 cells/well and 250,000 cells/well for H1650 cells and HaCat cells, respectively.

STING [2] = molecular target: T1, STING; experiment: Western Blot analysis for STING degradation in H596 cells; settings: 24h; for STING degradation (Western Blot, Figure 1): H596 cells, 0.22 µM, 0.67 µM, 2 µM and 6 µM
Method: For cell lysing for Western Blot analysis cell culture plates were brought to ice, supernatant was removed by aspiration and cells washed 2x in ice-cold DPBS. Cells were lysed in 65 µL of RIPA buffer supplemented with cOmplete ULTRA Tablets protease inhibitor cocktail, PIERCE Phosphatase inhibitor mini tablet, Benzonase and 10mM NaF for 20 min on ice. Lysates were collected, cleared by centrifugation (13000xg for 10 min at 4°C). Samples were either analysed directly or stored at -80°C until analysis.
For Western Blotting, total protein concentration in each lysate was determined using PIERCE Gold BCA Assay kit according to manufactures protocol. 6 µg of total protein was mixed with 2x Laemmli buffer containing DTT, boiled for 5 min at 95°C, cooled on ice and loaded into each well of a 4-20% Criterion TGX gel. Proteins were separated by electrophoresis, by running for 1h at 150V. After separation proteins were blotted onto a PVDF membrane by semi-dry transfer using Trans-Blot turbo system at pre-defined BioRad MIDI protocol; 25V, 1A (fixed) for 30 min. Membranes were blocked for 1h in 5% skim milk in TBS-T20 on a rocker at room temperature followed by washing and exposure to primary antibodies against human STING 1:1000 (Cell Signalling, #13647) or loading controls Vinculin 1:1000 (Cell Signalling, #13901) or beta-Actin 1:10000 (Sigma, A5441) all diluted in 5% BSA in TBS-T20. Membranes were probed over night at 4°C on a rocker. Membranes were washed 3x in TBS-T20 followed by exposure to secondary HRP-conjugated anti-rabbit antibody or HRP-conjugated anti-mouse antibody diluted 1:10000 in 5% skim milk in TBS-T20 as appropriate. Membranes were incubated for 1h at room temperature on a rocker, then washed 3x in TBS-T20.
For generating DC50 values, the intensity of individual bands was measured using imaged and expression levels were calculated as a ratio of STING intensities vs. Reference protein intensities and normalized to DMSO control. The normalized ratios were plotted on a XY curve in GraphPad Prism where DC50 was estimated using a 4-parameter non-linear regression fitting curve.
as §1, §2

STING [3] = molecular target: T1, STING; experiment: Western Blot analysis of STING phosphorylation in human fibroblast cells (STING agonism); parameters: host or cells: HFF-1 human foreskin fibroblasts; settings: 7.2µM-3.6nM; 24h
Method: Human fibroblast were treated with a titration of E22, E9, E14 and E16 (7.2µM-3.6nM) for 24h prior to cell lysis and subsequently total STING, pSTING and Vinculin were assessed by western blot using rabbit anti-STING (1:1000), anti-pSTING (1:1000), anti-Vinculin (1:1000) and 2nd anti-rabbit-HRP (1:10.000) or anti-mouse-HRP (1:7500). Proteins were visualized using ImageQuant800. Control cells included untreated cells and cells treated with 300nM diABZI C3.

STING [4] = molecular target: T2, STING (Mus musculus, UniProt Q3TBT3); experiment: IFN-β secretion from mouse RAW264.7 cells treated with diABZI; parameters: endogenous in cells; host or cells: RAW264.7 mouse cells; settings: 1.8 µM diABZI c3 and 0.05 µM Example compound
T2 sequence (Q3TBT3 1-378): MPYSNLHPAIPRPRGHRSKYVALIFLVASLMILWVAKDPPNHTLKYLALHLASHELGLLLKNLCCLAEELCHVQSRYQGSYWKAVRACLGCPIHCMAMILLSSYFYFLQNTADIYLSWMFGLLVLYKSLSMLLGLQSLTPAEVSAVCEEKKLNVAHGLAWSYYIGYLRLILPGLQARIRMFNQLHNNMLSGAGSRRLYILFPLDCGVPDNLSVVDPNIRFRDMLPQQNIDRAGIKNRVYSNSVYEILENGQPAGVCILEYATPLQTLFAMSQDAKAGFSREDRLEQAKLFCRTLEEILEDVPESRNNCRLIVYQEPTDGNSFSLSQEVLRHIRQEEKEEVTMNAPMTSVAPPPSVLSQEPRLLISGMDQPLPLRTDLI
Method: As expected, RAW264.7 cells treated with 1.8 µM diABZI c3 increased IFN-β secretion, resulting in a media concentration of around 1000 pg/mL. In contrast, cells treated with 1.8 µM diABZI c3 and 0.05 µM Example compounds 14, 16 or 24 reduced this expression to approximately 500 pg/mL.

T1 sequence (Q86WV6 whole entry): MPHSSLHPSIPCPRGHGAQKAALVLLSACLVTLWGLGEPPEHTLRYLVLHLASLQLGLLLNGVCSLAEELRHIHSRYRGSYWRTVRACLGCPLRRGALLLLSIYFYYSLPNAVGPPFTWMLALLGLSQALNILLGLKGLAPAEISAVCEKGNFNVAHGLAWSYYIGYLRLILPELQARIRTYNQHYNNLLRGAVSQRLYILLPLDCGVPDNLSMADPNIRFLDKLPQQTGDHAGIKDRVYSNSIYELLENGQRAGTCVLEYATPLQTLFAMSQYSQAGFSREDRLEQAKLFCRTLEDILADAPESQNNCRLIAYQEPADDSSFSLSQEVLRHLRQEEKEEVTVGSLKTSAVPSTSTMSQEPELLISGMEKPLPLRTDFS

CCn1nc(C)cc1C(=O)N=c1n(C)c2cc(C(N)=O)ccc2n1CCC(CCn1c(=NC(=O)c2cc(C)nn2CC)n(C)c2cc(C(N)=O)ccc21)OCC(=O)NCCOCCOCCOCCOCCC(=O)NCCOCCOCCOCCOCC(=O)N[C@H](C(=O)N1C[C@H](O)C[C@H]1C(=O)NCc1ccc(-c2scnc2C)cc1)C(C)(C)C (some centres unmarked) [Example 14]
STING degradation (Western Blot, Figure 1) (STING [1]): inducing visible degradation in H1650 and H596 at the higher concentrations tested | DC50 (STING [2]; reference protein beta-actin): 1000 to 5000 nM | STING degradation (Western Blot, Figure 1) (STING [2]): inducing visible degradation in H1650 and H596 at the higher concentrations tested | STING phosphorylation (pSTING) (STING [3]): no STING phosphorylation was observed | total STING protein levels (STING [3]): total STING protein levels were observed to decrease | IFN-β media concentration (STING [4]): approximately 500 pg/mL

CCn1nc(C)cc1C(=O)N=c1n(C)c2cc(C(N)=O)ccc2n1CCC(CCn1c(=NC(=O)c2cc(C)nn2CC)n(C)c2cc(C(N)=O)ccc21)OCC(=O)NCCOCCOCCOCCOCCC(=O)NCCOCCOCCOCCOCCNc1cccc2c1C(=O)N(C1CCC(=O)NC1=O)C2=O (centres unmarked) [Example 16]
STING degradation (Western Blot, Figure 1) (STING [1]): induced STING degradation in all cell lines tested at all concentrations tested | STING degradation (Western Blot, Figure 1) (STING [2]): induced STING degradation in all cell lines tested at all concentrations tested; also recorded: showed a more potent effect of induction of STING degradation than Example compound 14 | STING phosphorylation (pSTING) (STING [3]): no STING phosphorylation was observed | total STING protein levels (STING [3]): total STING protein levels were observed to decrease | IFN-β media concentration (STING [4]): approximately 500 pg/mL
